Experimental data: ChEMBL document CHEMBL1158607, “2' biaryl amides as novel and subtype selective M1 agonists. Part I: Identification, synthesis, and initial SAR” (Bioorg Med Chem Lett, 2010)
The source made the active and inactive calls. The rule behind the calls is not given here.

Experiments:
[1] = molecular target: T1, Muscarinic acetylcholine receptor M1 (Homo sapiens, UniProt P11229); test: Agonist activity at human muscarinic M1 receptor expressed in CHO cells assessed as effect on acetylcholine-induced intracellular calcium level by FLIPR assay; format: functional, cell-based
T1 sequence (P11229 whole entry): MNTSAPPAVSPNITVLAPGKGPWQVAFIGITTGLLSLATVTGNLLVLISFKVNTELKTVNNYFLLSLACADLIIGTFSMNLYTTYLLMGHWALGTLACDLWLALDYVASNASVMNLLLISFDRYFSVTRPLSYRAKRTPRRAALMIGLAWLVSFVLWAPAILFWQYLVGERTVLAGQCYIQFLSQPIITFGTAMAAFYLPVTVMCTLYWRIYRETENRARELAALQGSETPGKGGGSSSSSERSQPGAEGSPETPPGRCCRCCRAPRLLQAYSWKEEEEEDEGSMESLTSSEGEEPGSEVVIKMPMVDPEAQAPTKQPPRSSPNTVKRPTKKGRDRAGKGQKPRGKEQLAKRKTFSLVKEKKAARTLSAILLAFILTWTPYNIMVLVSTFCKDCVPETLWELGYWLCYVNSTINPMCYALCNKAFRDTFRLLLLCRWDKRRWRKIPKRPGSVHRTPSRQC

[2] = molecular target: T2, Muscarinic acetylcholine receptor M1 (Homo sapiens) (UniProt P11229); test: Intrinsic activity at human muscarinic M1 receptor expressed in CHO cells assessed as effect on acetylcholine-induced intracellular calcium level by FLIPR assay relative to acetylcholine; format: functional, cell-based
T2 sequence (whole entry): T1 sequence (P11229 whole entry)

[3] = molecular target: T3, Muscarinic acetylcholine receptor M2 (Homo sapiens) (UniProt P08172); test: Agonist activity at human muscarinic M2 receptor expressed in CHO cells assessed as effect on acetylcholine-induced intracellular calcium level by FLIPR assay; format: functional, cell-based
T3 sequence (whole entry): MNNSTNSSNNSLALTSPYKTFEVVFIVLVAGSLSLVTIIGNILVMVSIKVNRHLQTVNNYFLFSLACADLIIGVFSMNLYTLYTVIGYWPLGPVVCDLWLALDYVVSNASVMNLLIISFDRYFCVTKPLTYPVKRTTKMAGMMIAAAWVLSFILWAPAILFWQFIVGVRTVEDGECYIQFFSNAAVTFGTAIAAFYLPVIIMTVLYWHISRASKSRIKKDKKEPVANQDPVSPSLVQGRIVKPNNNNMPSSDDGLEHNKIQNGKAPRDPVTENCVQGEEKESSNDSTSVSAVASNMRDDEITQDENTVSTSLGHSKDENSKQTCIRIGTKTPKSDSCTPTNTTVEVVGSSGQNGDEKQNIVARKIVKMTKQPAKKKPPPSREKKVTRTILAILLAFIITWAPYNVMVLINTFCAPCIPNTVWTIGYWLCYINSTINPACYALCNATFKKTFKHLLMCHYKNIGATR

[4] = molecular target: T4, Muscarinic acetylcholine receptor M3 (Homo sapiens, UniProt P20309); test: Agonist activity at human muscarinic M3 receptor expressed in CHO cells assessed as effect on acetylcholine-induced intracellular calcium level by FLIPR assay; format: functional, cell-based
Target sequence in this assay (P20309 whole entry, looked up): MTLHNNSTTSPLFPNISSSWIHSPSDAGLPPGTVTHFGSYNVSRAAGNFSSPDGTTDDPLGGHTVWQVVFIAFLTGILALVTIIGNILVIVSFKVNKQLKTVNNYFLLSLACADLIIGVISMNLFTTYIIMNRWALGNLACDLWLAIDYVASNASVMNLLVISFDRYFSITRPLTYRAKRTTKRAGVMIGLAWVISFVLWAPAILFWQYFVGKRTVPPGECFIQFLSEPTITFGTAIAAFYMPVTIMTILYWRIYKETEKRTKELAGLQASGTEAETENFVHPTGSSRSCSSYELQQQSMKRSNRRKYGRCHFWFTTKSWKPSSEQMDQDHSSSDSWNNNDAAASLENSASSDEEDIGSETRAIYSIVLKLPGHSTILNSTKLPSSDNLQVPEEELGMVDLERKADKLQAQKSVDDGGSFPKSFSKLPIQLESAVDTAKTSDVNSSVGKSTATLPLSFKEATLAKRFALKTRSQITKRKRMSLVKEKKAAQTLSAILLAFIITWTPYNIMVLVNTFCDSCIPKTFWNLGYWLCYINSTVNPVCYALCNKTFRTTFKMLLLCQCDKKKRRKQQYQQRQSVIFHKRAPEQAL

[5] = molecular target: T5, Muscarinic acetylcholine receptor M4 (Homo sapiens) (UniProt P08173); test: Agonist activity at human muscarinic M4 receptor expressed in CHO cells assessed as effect on acetylcholine-induced intracellular calcium level by FLIPR assay; format: functional, cell-based
T5 sequence (whole entry): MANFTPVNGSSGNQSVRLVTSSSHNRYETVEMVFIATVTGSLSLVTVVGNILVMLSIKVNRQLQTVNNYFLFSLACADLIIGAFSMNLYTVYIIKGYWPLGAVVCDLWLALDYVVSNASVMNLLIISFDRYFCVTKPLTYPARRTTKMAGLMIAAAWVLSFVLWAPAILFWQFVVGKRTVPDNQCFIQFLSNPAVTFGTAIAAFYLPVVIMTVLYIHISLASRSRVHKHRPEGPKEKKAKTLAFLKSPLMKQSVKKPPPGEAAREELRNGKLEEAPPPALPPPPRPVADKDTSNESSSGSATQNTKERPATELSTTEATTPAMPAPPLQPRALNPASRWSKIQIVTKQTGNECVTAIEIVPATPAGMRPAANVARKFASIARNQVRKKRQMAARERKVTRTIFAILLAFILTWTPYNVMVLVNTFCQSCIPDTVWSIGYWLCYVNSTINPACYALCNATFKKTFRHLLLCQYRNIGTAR

[6] = molecular target: T6, Muscarinic acetylcholine receptor M5 (Homo sapiens) (UniProt P08912); test: Agonist activity at human muscarinic M5 receptor expressed in CHO cells assessed as effect on acetylcholine-induced intracellular calcium level by FLIPR assay; format: functional, cell-based
T6 sequence (whole entry): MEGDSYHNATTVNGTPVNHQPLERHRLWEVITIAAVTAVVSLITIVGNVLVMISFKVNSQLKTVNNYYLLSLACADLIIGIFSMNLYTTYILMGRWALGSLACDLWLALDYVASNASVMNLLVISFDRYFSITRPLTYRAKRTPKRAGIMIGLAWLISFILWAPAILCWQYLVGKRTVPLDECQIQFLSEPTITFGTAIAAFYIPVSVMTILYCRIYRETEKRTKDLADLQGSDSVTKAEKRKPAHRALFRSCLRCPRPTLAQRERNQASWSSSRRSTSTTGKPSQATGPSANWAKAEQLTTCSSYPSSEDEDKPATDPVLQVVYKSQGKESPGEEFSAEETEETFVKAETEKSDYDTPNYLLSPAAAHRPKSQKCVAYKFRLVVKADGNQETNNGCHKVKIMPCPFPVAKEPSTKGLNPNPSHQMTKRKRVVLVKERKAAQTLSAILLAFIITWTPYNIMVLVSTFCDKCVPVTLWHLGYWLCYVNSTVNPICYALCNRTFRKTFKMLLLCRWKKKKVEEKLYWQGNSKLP

[7] = molecular target: T7, Muscarinic acetylcholine receptor M2 (Homo sapiens, UniProt P08172); test: Inhibition of human muscarinic M2 receptor expressed in CHO cells; format: cell-based
T7 sequence (P08172 whole entry): T3 sequence (whole entry)

[8] = molecular target: T4, Muscarinic acetylcholine receptor M3; test: Inhibition of human muscarinic M3 receptor expressed in CHO cells; format: cell-based
Target sequence in this assay (P20309 whole entry): as the sequence (P20309 whole entry, looked up) above

[9] = molecular target: T8, Muscarinic acetylcholine receptor M4 (Homo sapiens, UniProt P08173); test: Inhibition of human muscarinic M4 receptor expressed in CHO cells; format: cell-based
T8 sequence (P08173 whole entry): T5 sequence (whole entry)

[10] = molecular target: T9, Muscarinic acetylcholine receptor M5 (Homo sapiens, UniProt P08912); test: Inhibition of human muscarinic M5 receptor expressed in CHO cells; format: cell-based
T9 sequence (P08912 whole entry): T6 sequence (whole entry)

SMILES	EC50 [1]	also measured
Cc1ccc(-c2ccccc2C(=O)NCC2CCNCC2)cc1Cl	0.0126 µM	Intrinsic activity [2]: 91%; Activity [3]: inactive; Activity [4]: inactive; Activity [5]: inactive; Activity [6]: inactive; IC50 [7]: 0.398 µM; IC50 [8]: 0.251 µM; IC50 [9]: 0.398 µM; IC50 [10]: 0.794 µM
COc1ccc(-c2ccccc2C(=O)NCC2CCNCC2)cc1	> 10 µM	–
Cc1cccc(-c2ccccc2C(=O)NCC2CCNCC2)c1	> 10 µM	–
O=C(NCC1CCNCC1)c1ccccc1-c1ccco1	> 10 µM	–
CC(=O)c1cccc(-c2ccccc2C(=O)NCC2CCNCC2)c1	> 10 µM	–
O=C(NCC12CCN(CC1)CC2)c1ccccc1-c1nc(Cl)cs1	0.251 µM	Intrinsic activity [2]: 63%
O=C(NCC1CCNC1)c1ccccc1-c1nc(Cl)cs1 (centres undefined)	> 10 µM	–
CC(NC(=O)c1ccccc1-c1cccc(Cl)c1)C1CCNCC1 (centres undefined)	> 10 µM	Intrinsic activity [2]: 26%
CC(=O)Nc1cccc(-c2ccccc2C(=O)NCC2CCNCC2)c1	> 10 µM	–
O=C(NCC12CCN(CC1)C2)c1ccccc1-c1cccc(Cl)c1	> 10 µM	–
O=C(NCC12CCN(CC1)CC2)c1ccccc1-c1cccc(Cl)c1	> 10 µM	–
O=C(NCC1CCNCC1)c1ccccc1-c1cccc(Cl)c1Cl	> 10 µM	Intrinsic activity [2]: 16%
O=C(NCC1CCNCC1)c1ccccc1-c1cccnc1	> 10 µM	–
O=C(NCC1CCNCC1)c1ccccc1-c1cccs1	> 10 µM	–
N[C@H]1CC[C@H](CNC(=O)c2ccccc2-c2cccc(Cl)c2)CC1	> 10 µM	–
O=C(NCC1CCNCC1)c1ccccc1-c1cccc(-c2ccccc2)c1	> 10 µM	–
O=C(NCC1CCNCC1)c1ccccc1-c1ccc(F)cc1	> 10 µM	–

SMILES	EC50 [1]	also measured
O=C(NCC1CCNCC1)c1ccccc1-c1cc(Cl)ccc1Cl	0.0398 µM	Intrinsic activity [2]: 100%
O=C(NCC1CCNCC1)c1ccccc1-c1cccc(C(F)(F)F)c1	> 10 µM	–
O=C(NCC1CCNCC1)c1ccccc1-c1cc(F)cc(Cl)c1	> 10 µM	Intrinsic activity [2]: 17%
O=C(NC[C@H]1C[C@H]2CC[C@@H](C1)N2)c1ccccc1-c1cccc(Cl)c1	> 10 µM	–
O=C(NCC1CCNCC1)c1ccccc1-c1ccsc1	> 10 µM	–
CC1(CNC(=O)c2ccccc2-c2cccc(Cl)c2)CCNCC1	> 10 µM	Intrinsic activity [2]: 45%
O=C(NCC1CCNCC1)c1ccccc1-c1ccncc1	> 10 µM	–
O=C(NCC1CCNCC1)c1ccccc1-c1nccs1	> 10 µM	–
O=C(NCC1CCNCC1)c1ccccc1-c1nc(Cl)cs1	–	Intrinsic activity [2]: 84%; Activity [3]: inactive; Activity [4]: inactive; Activity [5]: inactive; Activity [6]: inactive
Cc1ccc(-c2ccccc2C(=O)NCC2CCNCC2)cc1	> 10 µM	–
CC1(C)CNCCC1CNC(=O)c1cc(Cl)ccc1-c1cccc(Cl)c1 (centres undefined)	> 10 µM	–
O=C(NC1CCNC1)c1ccccc1-c1nc(Cl)cs1 (centres undefined)	> 10 µM	–
CN(C)C(=O)c1cccc(-c2ccccc2C(=O)NCC2CCNCC2)c1	> 10 µM	–
O=C(O)c1cccc(-c2ccccc2C(=O)NCC2CCNCC2)c1	> 10 µM	–
O=C(NCC1CCNCC1)c1ccccc1-c1cccc(Cl)c1F	1 µM	Intrinsic activity [2]: 66%
CN1CCC(CNC(=O)c2ccccc2-c2cccc(Cl)c2)CC1	> 10 µM	Intrinsic activity [2]: 16%

The next lines start with results.

EC50 [1]	SMILES	also measured
> 10 µM	NC(=O)c1cccc(-c2ccccc2C(=O)NCC2CCNCC2)c1	–
0.0501 µM	O=C(NCC1CCNCC1)c1ccccc1-c1ccc(Cl)c(Cl)c1	Intrinsic activity [2]: 59%
0.0251 µM	O=C(NCC1CCNCC1)c1ccccc1-c1ccc(F)c(Cl)c1	Intrinsic activity [2]: 76%
> 10 µM	O=C(NCC1CCNCC1)c1ccccc1-c1ccc(Cl)s1	–
> 10 µM	COc1ccccc1-c1ccccc1C(=O)NCC1CCNCC1	–
> 10 µM	CN(CC1CCNCC1)C(=O)c1ccccc1-c1cccc(Cl)c1	Intrinsic activity [2]: 2%
> 10 µM	O=C(NCC1CCNCC1)c1ccccc1-c1cccc2ccccc12	–
> 10 µM	O=C(NCc1ccncc1)c1ccccc1-c1nc(Cl)cs1	–
> 10 µM	O=C(NCC1CNCCO1)c1ccccc1-c1nc(Cl)cs1 (centres undefined)	–
> 10 µM	Cc1c(Cl)cccc1-c1ccccc1C(=O)NCC1CCNCC1	Intrinsic activity [2]: 5%
> 10 µM	O=C(NCC1CCNCC1)c1ccccc1-c1cc(Cl)cc(Cl)c1	Intrinsic activity [2]: 24%
> 10 µM	O=C(NCC1CCCNC1)c1ccccc1-c1nc(Cl)cs1 (centres undefined)	–
> 10 µM	N#Cc1cccc(-c2ccccc2C(=O)NCC2CCNCC2)c1	–
1.58 µM	Cc1cc(Cl)cc(-c2ccccc2C(=O)NCC2CCNCC2)c1	Intrinsic activity [2]: 52%
> 10 µM	O=C(NCC1CCNCC1)c1ccccc1-c1ccccc1Cl	–
0.158 µM	Cc1ccc(Cl)cc1-c1ccccc1C(=O)NCC1CCNCC1	Intrinsic activity [2]: 86%

EC50 [1]	SMILES	also measured
> 10 µM	O=C(NCC1CCNCC1)c1ccccc1-c1ccc(C(F)(F)F)cc1	–
> 10 µM	O=C(NCC1CCNCC1)c1ccccc1-c1cccc(OC(F)(F)F)c1	–
> 10 µM	CC1CC(CNC(=O)c2ccccc2-c2cccc(Cl)c2)CCN1 (centres undefined)	Intrinsic activity [2]: 28%
> 10 µM	O=C(NCC1CCCN1)c1ccccc1-c1nc(Cl)cs1 (centres undefined)	–
> 10 µM	NS(=O)(=O)c1cccc(-c2ccccc2C(=O)NCC2CCNCC2)c1	–
> 10 µM	COCc1cccc(-c2ccccc2C(=O)NCC2CCNCC2)c1	–
> 10 µM	CS(=O)(=O)c1cccc(-c2ccccc2C(=O)NCC2CCNCC2)c1	–
> 10 µM	O=C(NCC1CCNCC1)c1ccccc1-c1ccc2ccccc2c1	–
> 10 µM	O=C(NC1CCNCC1)c1ccccc1-c1nc(Cl)cs1	–
> 10 µM	O=C(NCC1CCOCC1)c1ccccc1-c1nc(Cl)cs1	–
> 10 µM	O=C(NC1CCCCNC1)c1ccccc1-c1nc(Cl)cs1 (centres undefined)	–
> 10 µM	O=C(NCC1CCNCC1)c1ccccc1-c1cccc(F)c1	–
> 10 µM	O=C(NC1CCCNC1)c1ccccc1-c1nc(Cl)cs1 (centres undefined)	–
> 10 µM	O=C(NCC1CCN2CCCC1C2)c1ccccc1-c1cccc(Cl)c1 (centres undefined)	–
> 10 µM	COc1cccc(-c2ccccc2C(=O)NCC2CCNCC2)c1	–
> 10 µM	CN(C)c1cccc(-c2ccccc2C(=O)NCC2CCNCC2)c1	–
